Measured values published in USRE50563E1, “Use of an all-D-pentapeptide chemokine antagonist to reduce opioid dose in a person with pain” (Creative Bio-Peptides, Inc., priority 2017, dated 2025).
Where two headings read alike, the source gives them in different places.

Key:
[1] = test system: Male, Sprague-Dawley rats; details: for morphine analgesia in an animal model of post-surgical pain (reversal of mechanical allodynia): RAP-103 0.5 mg/kg i.p. plus morphine 5.0 mg/kg s.c. vs morphine alone, 25 min post-surgery, FIG. 4
[2] = test system: cytokines, IL1β, TNFα; chemokines CCL2, CCL3; and chemokines receptors CCR2 and CCR5; details: 0.5 mg/kg, for 7 days, p.o., FIGS. 3A-F
Method: To test the hypothesis, we first used behavioral and molecular/cellular approaches to explore chronic pain development and inflammatory reaction in Streptozotocin (STZ) induced diabetic rats. […] CCL2 and CCL3 are two chemokines well known in mediating immune cell trafficking and immune response in the context of neuropathic pain.
(§1) The induction of diabetes was confirmed 72 h after streptozotocin injection by measurement of blood glucose levels using Contour® blood glucose diagnostic kit (Bayer HealthCare, Canada). Body weight and blood glucose levels were measured before and 3 days after streptozotocin injection, once a week for three weeks after diabetes induction. Only rats having blood glucose concentration consistently higher than 300 mg/dl were used for the present study.

[3] = test system: Streptozotocin (STZ) induced diabetic rats
Method: as §1
(§2) Appropriate concentration for each dose was adjusted accordingly.
Animals were placed in Plexiglas boxes on an elevated metal mesh floor and allowed 60 min for habituation before testing. […] Withdrawal thresholds of both paws were averaged as one single value per animal.
(§3) Assessment on the effects of RAP103 on mechanical and cold allodynia was performed between 2-4 hours following the drug administration.
(§4) All data were presented as means±SEM. Statistical analysis was performed by two-way ANOVA followed by Bonferroni post-tests. The criterion for statistical significance was P<0.05.

[4] = test system: Streptozotocin (STZ) induced diabetic rats; details: oral gavage daily, FIGS. 2A-B
Method: as §1, §2
Cumulative scores were then obtained by summing the four scores for each rat, the minimum score being 0 (no response to any of the four trials) and the maximum possible score being 12 (repeated flicking and licking of paws on each of the four trials).
as §3, §4

all-D-TTNYT [RAP-103]
morphine analgesia in an animal model of post-surgical pain (reversal of mechanical allodynia) [1]: statistically significantly greater analgesia | morphine analgesia in an animal model of post-surgical pain (reversal of mechanical allodynia) ([1]; listed as RAP103): potentiates morphine analgesia | shift to the left of the ED50 for morphine by addition of RAP-103 ([1]; RAP-103 0.5 mg/kg plus morphine 0.5 to 5.0 mg/kg, % reversal of mechanical allodynia at t=60 min, FIG. 5): about 2 fold | inflammation in the sciatic nerves of STZ rats (inflammatory mediators) [2]: reducing significantly all examined inflammatory mediators | inflammation in the sciatic nerves of STZ rats (inflammatory mediators) ([2]; listed as RAP103): significantly inhibited inflammation | established hypersensitivity in STZ rats ([3]; 0.5.-0.02 mg/Kg b.w., daily, for 7 days, mechanical and cold allodynia): complete reversal of established hypersensitivity | mechanical allodynia in rats with neuropathic pain ([3]; STZ diabetic rats, oral gavage daily, FIGS. 1A-B): reversed mechanical allodynia | cold allodynia in rats with neuropathic pain [4]: reversed cold allodynia
